Holding throughout (test): KINOMEscan competition binding
The target in one experiment is T1, GCN2(Kin.Dom.2,S808G) (Homo sapiens, UniProt Q9P2K8, S808G).
T1 sequence (Q9P2K8 590-1001 S808G limits assumed): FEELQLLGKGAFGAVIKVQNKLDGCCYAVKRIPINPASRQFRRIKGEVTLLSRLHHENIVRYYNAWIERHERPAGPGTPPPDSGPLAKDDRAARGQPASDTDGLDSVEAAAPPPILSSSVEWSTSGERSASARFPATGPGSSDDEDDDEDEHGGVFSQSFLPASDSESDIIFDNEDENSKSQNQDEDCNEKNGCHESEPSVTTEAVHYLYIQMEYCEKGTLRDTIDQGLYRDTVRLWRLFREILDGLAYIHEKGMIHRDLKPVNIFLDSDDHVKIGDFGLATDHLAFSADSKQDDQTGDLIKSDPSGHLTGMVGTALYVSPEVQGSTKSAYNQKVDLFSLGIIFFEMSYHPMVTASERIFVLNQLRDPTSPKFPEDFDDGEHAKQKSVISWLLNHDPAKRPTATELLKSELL
The settings on record: read-out: %Inh GCN2(Kin.Dom.2,S808G).

A further experiment concerns the target T2, EPHB6 (Homo sapiens, UniProt O15197).
T2 sequence (O15197 32-1021): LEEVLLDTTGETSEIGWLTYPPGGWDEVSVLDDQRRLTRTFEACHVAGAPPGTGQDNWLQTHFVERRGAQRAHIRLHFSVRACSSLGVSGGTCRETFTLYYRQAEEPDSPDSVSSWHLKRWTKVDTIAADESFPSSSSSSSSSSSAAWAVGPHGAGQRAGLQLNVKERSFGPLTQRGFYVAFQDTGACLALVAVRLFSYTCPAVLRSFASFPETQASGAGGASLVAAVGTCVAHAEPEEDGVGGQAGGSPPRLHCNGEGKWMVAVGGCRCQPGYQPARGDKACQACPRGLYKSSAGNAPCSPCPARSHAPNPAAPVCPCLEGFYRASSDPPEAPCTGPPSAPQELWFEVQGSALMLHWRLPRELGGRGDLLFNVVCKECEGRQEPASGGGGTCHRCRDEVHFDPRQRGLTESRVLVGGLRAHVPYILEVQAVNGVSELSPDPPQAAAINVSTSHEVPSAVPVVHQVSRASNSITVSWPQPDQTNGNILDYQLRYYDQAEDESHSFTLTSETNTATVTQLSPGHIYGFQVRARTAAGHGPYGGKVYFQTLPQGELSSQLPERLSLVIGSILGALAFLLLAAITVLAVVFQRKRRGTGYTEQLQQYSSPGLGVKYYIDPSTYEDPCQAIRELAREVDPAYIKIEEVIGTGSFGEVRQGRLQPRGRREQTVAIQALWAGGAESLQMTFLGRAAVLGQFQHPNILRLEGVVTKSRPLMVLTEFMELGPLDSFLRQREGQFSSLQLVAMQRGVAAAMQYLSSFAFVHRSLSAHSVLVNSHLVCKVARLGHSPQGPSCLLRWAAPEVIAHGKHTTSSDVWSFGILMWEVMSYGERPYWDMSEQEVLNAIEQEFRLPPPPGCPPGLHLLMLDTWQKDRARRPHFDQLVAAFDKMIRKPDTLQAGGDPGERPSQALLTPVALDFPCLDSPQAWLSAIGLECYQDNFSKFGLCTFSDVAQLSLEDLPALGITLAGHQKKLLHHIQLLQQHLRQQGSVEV
The note with it: read-out: %Inh EPHB6.

The target in another experiment is ERN1 (Homo sapiens, UniProt O75460). The settings on record: read-out: %Inh ERN1.
A further experiment addresses CSNK2A2 (Homo sapiens, UniProt P19784). The settings on record: read-out: %Inh CSNK2A2.
The target of another experiment is T3, BRSK2 (Homo sapiens, UniProt Q8IWQ3).
T3 sequence (Q8IWQ3 1-736): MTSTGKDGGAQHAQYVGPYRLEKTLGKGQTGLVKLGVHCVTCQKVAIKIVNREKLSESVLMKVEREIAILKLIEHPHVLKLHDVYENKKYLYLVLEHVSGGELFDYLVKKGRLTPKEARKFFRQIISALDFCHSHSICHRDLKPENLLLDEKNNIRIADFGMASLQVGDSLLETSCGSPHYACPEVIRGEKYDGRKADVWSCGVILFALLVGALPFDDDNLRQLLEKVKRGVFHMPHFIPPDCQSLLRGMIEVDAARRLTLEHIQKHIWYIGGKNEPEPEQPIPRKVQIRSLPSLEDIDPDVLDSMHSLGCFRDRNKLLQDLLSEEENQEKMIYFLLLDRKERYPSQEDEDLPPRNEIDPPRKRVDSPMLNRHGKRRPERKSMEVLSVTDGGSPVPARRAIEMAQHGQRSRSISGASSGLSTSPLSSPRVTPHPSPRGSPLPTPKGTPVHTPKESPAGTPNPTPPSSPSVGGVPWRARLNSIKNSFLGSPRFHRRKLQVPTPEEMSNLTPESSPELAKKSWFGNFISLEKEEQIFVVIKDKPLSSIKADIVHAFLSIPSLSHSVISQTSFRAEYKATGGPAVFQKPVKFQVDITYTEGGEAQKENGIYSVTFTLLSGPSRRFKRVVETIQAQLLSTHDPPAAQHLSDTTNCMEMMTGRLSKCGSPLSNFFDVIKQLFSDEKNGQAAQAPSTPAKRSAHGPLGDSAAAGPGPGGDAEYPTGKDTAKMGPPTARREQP
The note with it: read-out: %Inh BRSK2.

Take `Cn1cc(-c2cnc(N)c3c(-c4ccc5c(c4)CCN5C(=O)Cc4ccccc4)csc23)cn1` [UNC10225012A]: the inhibition at 1 µM at GCN2(Kin.Dom.2,S808G) amounted to 91.2%; on EPHB6, 98.3%; at ERN1 it was 28%; at CSNK2A2, 1%; at BRSK2 it was 7%.

On to `CS(=O)(=O)Cc1ccc(Nc2nccc(-c3c(-c4cccc(NC(=O)C5CCCCC5)c4)nn4ncccc34)n2)cc1` [UNC10225159A], for which the inhibition at 1 µM on GCN2(Kin.Dom.2,S808G) came to 0%; on EPHB6, 42%; on ERN1, 33%; on CSNK2A2 it was 1%; on BRSK2, 0%.

Take `Cc1ccc(NC(=O)Nc2cccc(C(F)(F)F)c2)cc1` [UNC10225187A]: the inhibition at 1 µM at GCN2(Kin.Dom.2,S808G) stood at 0%; at EPHB6, 21%; at ERN1, 0%; at CSNK2A2, 0%; at BRSK2, 0%.

Take `COc1cccc(OC)c1C(=O)Nc1cccc(-c2nn3ccccc3c2-c2ccnc(Nc3cccc(F)c3)n2)c1` [UNC10225310A]: the inhibition at 1 µM at GCN2(Kin.Dom.2,S808G) amounted to 0%; on EPHB6, 42%; at ERN1, 10%; at CSNK2A2 it was 23%; at BRSK2, 16%.

Turning to `O=c1cc(N2CCOCC2)nc2n(Cc3cccc(Cl)c3Cl)c(C3CC3)nn12` [UNC10225469A], the inhibition at 1 µM on GCN2(Kin.Dom.2,S808G) is 0%; on EPHB6, 33%; at ERN1, 0%; at CSNK2A2 it was 0%; at BRSK2, 0%.

The values are drawn from paper PMC5540273, “Progress towards a public chemogenomic set for protein kinases and a call for contributions” (PLoS ONE, 2017).
